Assay results from patent publication US20130274276A1, “METHODS AND COMPOSITIONS FOR DETERMINING VIRUS SUSCEPTIBILITY TO NON-NUCLEOSIDE REVERSE TRANSCRIPTASE INHIBITORS” (Laboratory Corporation of America Holdings, priority 2012, published 2013).

Tests used:
Type in all cases: cell-based
[1] = system: HIV clinical specimens with Y188L and no known RPV resistance associated mutations; assay: In-silico site directed mutagenesis (isSDM) analysis of matched phenotype/genotype database of clinical specimens; details: 286 clinical specimens with Y188L and no known RPV resistance associated mutations; biological cutoff FC=2
Protocol: Rilpivirine (RPV) is a recently approved non-nucleoside reverse transcriptase inhibitor (NNRTI). […] Correlation analysis was performed among clinical specimens with both phenotypic and genotypic data (N=20,004). A novel mutation associated with phenotypic reduced rilpivirine susceptibility was identified, Y188L, as determined by a fold change in IC50 (FC) greater than the biological cutoff (BCO) for rilpivirine (FC=2).
(§1) Site-directed mutagenesis (SDM) was performed to verify the association of Y188L with RPV resistance. The impact of this mutation was also evaluated and compared to the existing RPV RAMs (K101E/P, E138A/G/K/Q/R, V179L, Y181C/I/V, H221Y, F227C, and M230I/L) by performing in-silico site directed mutagenesis (is SDM) as a method for analyzing samples in the database that have wild type amino acids at RPV resistance positions except for the single mutation of interest. Samples were not excluded based on other NNRTI RAMs, or their NRTI and PI profile. In the is SDM analysis, fold change (FC) distribution of samples with each mutation was compared to specimens without the mutation, and the difference was evaluated for statistical significance using Mann-Whitney test.
Drug susceptibility tests performed with resistance test vectors were carried out using packaging host and target host cells consisting of the human embryonic kidney cell line 293. […]

[2] = system: HIV engineered to contain the Y188L reverse transcriptase mutation
Protocol: as §1, with “test. […]” for “test.”
Drug susceptibility tests performed with resistance test vectors were carried out using packaging host and target host cells consisting of the human embryonic kidney cell line 293. Susceptibility tests were carried out with the RTV libraries by using viral particles comprising the RTV libraries to infect a host cell in which the expression of the indicator gene is measured. The amount of indicator gene (luciferase) activity detected in infected cells is used as a direct measure of “infectivity,” i.e., the ability of the virus to complete a single round of replication. […]

[3] = system: HIV strain derived from an infected patient having a Y188L mutation; assay: PhenoSenseGT report, susceptibility analysis of patient-derived HIV; details: fold change in IC50 greater than the biological cutoff (BCO) for those drugs, FIG. 3
Protocol: FIG. 3 is a sample PhenoSenseGT® report showing the results of susceptibility analyses to various nucleoside reverse transcriptase inhibitors (NRTIs), non-nucleoside reverse transcriptase inhibitors (NNRTIs), and protease inhibitors (PIs).
Drug susceptibility tests performed with resistance test vectors were carried out using packaging host and target host cells consisting of the human embryonic kidney cell line 293. Susceptibility tests were carried out with the RTV libraries by using viral particles comprising the RTV libraries to infect a host cell in which the expression of the indicator gene is measured. The amount of indicator gene (luciferase) activity detected in infected cells is used as a direct measure of “infectivity,” i.e., the ability of the virus to complete a single round of replication. Thus, drug susceptibility can be determined by plotting the amount of luciferase activity produced by patient derived viruses in the presence of varying concentrations of the antiviral drug. By identifying the concentration of drug at which luciferase activity is half-maximum, the IC50 of the virus from which patient-derived segment(s) were obtained for the antiretroviral agent can be determined. The IC50 provides a direct measure of the susceptibility of the HIV infecting the patient to the drug. […]

SMILES | median fold change in IC50 (FC) of clinical specimens with Y188L [1] [fold] | fold change in IC50 (FC) of the Y188L site directed mutant [2] [fold] | susceptibility of HIV with Y188L mutation (fold change in IC50 relative to biological cutoff) [3]
Cc1cc(/C=C/C#N)cc(C)c1Nc1ccnc(Nc2ccc(C#N)cc2)n1 [rilpivirine] | 9.2 | 6.1 | 
O=C1Nc2ccc(Cl)cc2[C@@](C#CC2CC2)(C(F)(F)F)O1 [efavirenz] |  |  | reduced susceptibility
Cc1ccnc2c1NC(=O)c1cccnc1N2C1CC1 [nevirapine] |  |  | reduced susceptibility
